The values that follow are results of earlier work, collected in PubChem BioAssay AID1259409 (Chemical Carcinogenesis Research Information System (CCRIS), 2018).

This series relates to rodent chemically induced tumor inhibition, incidence and multiplicity. In words: CCRIS tumor inhibitor studies. As to conditions: Route [Inhibitor]: ORAL.

Take `O=C1O[C@H]([C@@H](O)CO)C(O)=C1O`: the “tumour outcome (control, treated, inhibition, significance)” value was 25/40 (63%), 14/40 (35%), 44%, p<0.001 (Carcinogen: 1,2-DIMETHYLHYDRAZINE DICHLORIDE, 306-37-6, Dose [Inhibitor]: 0, 0.3% SOLUTION IN DRINKING WATER BEGINNING 1 WK POST CARCINOGEN TREATMENT AND AND CONTINUING FOR DURATION OF STUDY (ST, Species: MOUSE, Strain/Sex: CBA/FEMALE, Target Tissue: Type of Lesion: UTERUS: SARCOMA, Dose [Carcinogen]: 8 MG/KG 1/WK FOR 8 WK, Promoter: ESTRADIOL DIPROPIONATE, 133-38-2); 25/40 (63%), 24/32 (75%), -19%, not calculated (Carcinogen: 1,2-DIMETHYLHYDRAZINE DICHLORIDE, 306-37-6, Dose [Inhibitor]: 0, 0.3% SOLUTION IN DRINKING WATER BEGINNING 1 WK POST CARCINOGEN TREATMENT AND CONTINUING FOR DURATION OF STUDY (STUDY, Species: MOUSE, Strain/Sex: CBA/FEMALE, Target Tissue: Type of Lesion: UTERUS: SARCOMA, Dose [Carcinogen]: 8 MG/KG 1/WK FOR 8 WK, Promoter: ESTRADIOL DIPROPIONATE, 133-38-2); 18/20 (90%), 19/22 (86%), 4%, not significant (Carcinogen: 1,2-DIMETHYLHYDRAZINE-DIHYDROCHLORIDE, 306-37-6, Dose [Inhibitor]: 25 MG/KG/D IN DIET STARTING AT TIME OF CARCINOGEN TREATMENT AND CONTINUING FOR 35 WK (STUDY DURATION: 35 WK), Species: MOUSE, Strain/Sex: CF-1/FEMALE, Target Tissue: Type of Lesion: LARGE BOWEL: GLANDULAR TUMORS, Dose [Carcinogen]: 20 MG/KG 1/WK FOR 24 WK, Promoter: NONE USED); 18/20 (90%), 20/20 (100%), -11%, not significant (Carcinogen: 1,2-DIMETHYLHYDRAZINE-DIHYDROCHLORIDE, 306-37-6, Dose [Inhibitor]: 50 MG/KG/D IN DIET STARTING AT TIME OF CARCINOGEN TREATMENT AND CONTINUING FOR 35 WK (STUDY DURATION: 35 WK), Species: MOUSE, Strain/Sex: CF-1/FEMALE, Target Tissue: Type of Lesion: LARGE BOWEL: GLANDULAR TUMORS, Dose [Carcinogen]: 20 MG/KG, 1/WK FOR 24 WK, Promoter: NONE USED); 18/20 (90%), 16/23 (70%), 22%, not significant (Carcinogen: 1,2-DIMETHYLHYDRAZINE-DIHYDROCHLORIDE, 306-37-6, Dose [Inhibitor]: 100 MG/KG/DAY IN DIET STARTING AT TIME OF CARCINOGEN TREATMENT AND CONTINUING FOR 35 WK (STUDY DURATION: 35 WK), Species: MOUSE, Strain/Sex: CF-1/FEMALE, Target Tissue: Type of Lesion: LARGE BOWEL: GLANDULAR TUMORS, Dose [Carcinogen]: 20 MG/KG 1/WK FOR 24 WK, Promoter: NONE USED); 18/20 (90%), 19/23 (83%), 8%, not significant (Carcinogen: 1,2-DIMETHYLHYDRAZINE-DIHYDROCHLORIDE, 306-37-6, Dose [Inhibitor]: 200 MG/KG/DAY IN DIET STARTING AT TIME OF CARCINOGEN TREATMENT AND CONTINUING FOR 35 WK (STUDY DURATION: 35 WK), Species: MOUSE, Strain/Sex: CF-1/FEMALE, Target Tissue: Type of Lesion: LARGE BOWEL: GLANDULAR TUMORS, Dose [Carcinogen]: 20 MG/KG 1/WK FOR 24 WK, Promoter: NONE USED). Further, the “tumour outcome (control, treated, inhibition, significance)” value was 23/28 (82%), 12/18 (67%), 18%, not significant (Carcinogen: 1,2-DIMETHYLHYDRAZINE, 540-73-8, Dose [Inhibitor]: 0, 0.02% IN DIET FOR 14 WK BEGINNING 3 D PRIOR TO CARCINOGEN TREATMENT (STUDY DURATION: 26 WK), Species: RAT, Strain/Sex: SPRAGUE-DAWLEY/MALE, Target Tissue: Type of Lesion: INTESTINE: CARCINOMA, Dose [Carcinogen]: 20 MG/KG BW 1/WK FOR 12 WK, Promoter: NONE USED); 1/20 (5%), 6/20 (30%), -500%, p<0.05 (Carcinogen: 1,2-DIMETHYLHYDRAZINE, 540-73-8, Dose [Inhibitor]: 0, 5% IN DIET BEGINNING 1 WK POST LAST CARCINOGEN DOSE AND CONTINUING FOR 36 WK (STUDY DURATION: 40 WK), Species: RAT, Strain/Sex: F344/MALE, Target Tissue: Type of Lesion: COLON: ADENOMA, Dose [Carcinogen]: 20 MG/KG 1/WK FOR 4 WK, Promoter: NONE USED); 6/20 (30%), 7/20 (35%), -17%, not calculated (Carcinogen: 1,2-DIMETHYLHYDRAZINE, 540-73-8, Dose [Inhibitor]: 0, 5% IN DIET BEGINNING 1 WK POST LAST CARCINOGEN DOSE AND CONTINUING FOR 36 WK (STUDY DURATION: 40 WK), Species: RAT, Strain/Sex: F344/MALE, Target Tissue: Type of Lesion: COLON: CARCINOMA, Dose [Carcinogen]: 20 MG/KG 1/WK FOR 4 WK, Promoter: NONE USED); 100%, 100%, 0%, not significant (Carcinogen: 1,2-DIMETHYLHYDRAZINE, 540-73-8, Dose [Inhibitor]: 0, 10 G/L IN DRINKING WATER FOR DURATION OF STUDY BEGINNING 7 D PRIOR TO CARCINOGEN TREATMENT (STUDY DURATION: 8 MO), Species: RAT, Strain/Sex: BD6/MALE, Target Tissue: Type of Lesion: INTESTINE: TUMOR, Dose [Carcinogen]: 20 MG/KG BW 1/WK FOR 20 WK, Promoter: NONE USED); 26%, 0%, 100%, p<0.05 (Carcinogen: 1,2-DIMETHYLHYDRAZINE, 540-73-8, Dose [Inhibitor]: 0.25% IN 20% FAT DIET DAILY STARTING 2 WK BEFORE CARCINOGEN TREATMENT AND CONTINUING FOR DURATION OF STUDY (STUDY DURATI, Species: RAT, Strain/Sex: F344/FEMALE, Target Tissue: Type of Lesion: COLON: ADENOMA, ADENOCARCINOMA, Dose [Carcinogen]: 150 MG/KG BW IN 0.9% SALINE ADJUSTED TO PH 6.8 ONCE, Promoter: NONE USED); 22%, 4%, 82%, p<0.05 (Carcinogen: 1,2-DIMETHYLHYDRAZINE, 540-73-8, Dose [Inhibitor]: 0.25% IN 20% FAT DIET DAILY STARTING 2 WK BEFORE CARCINOGEN TREATMENT AND CONTINUING FOR DURATION OF STUDY (STUDY DURATI, Species: RAT, Strain/Sex: F344/FEMALE, Target Tissue: Type of Lesion: KIDNEY: NEPHROBLASTOMA, ADENOCARCINOMA, Dose [Carcinogen]: 150 MG/KG BW IN 0.9% SALINE ADJUSTED TO PH 6.8 ONCE, Promoter: NONE USED). Also, the “tumour outcome (control, treated, inhibition, significance)” value (Carcinogen: 1,2-DIMETHYLHYDRAZINE, 540-73-8, Dose [Inhibitor]: 0.3% IN DRINKING WATER BEGINNING AFTER LAST CARCINOGEN DOSE AND CONTINUING FOR DURATION OF STUDY (STUDY DURATION: 55 WK), Species: MOUSE, Strain/Sex: CBA/FEMALE, Target Tissue: Type of Lesion: UTERUS (ENDOMETRIUM): STROMAL SARCOMA, Dose [Carcinogen]: 8 MG/KG BW IN WATER 1/WK FOR 8 WK, Promoter: ESTRADIOL PROPIONATE, 113-38-2) is 13/40 (33%), 13/30 (43%), -33%, not calculated.
